{"source": "patent US20250127813A1", "about": "“COMBINATION DRUG” (OTSUKA PHARMACEUTICAL CO., LTD., priority 2021, published 2025)", "key": {"A375": {"test_system": "A375", "assay": "Combination of tolinapant and NY-ESO-1 TCR-T in A375 subcutaneous tumor-bearing NOG mice", "type": "in vivo, mouse", "method": "Each mouse was identified with a number attached to the tail of the mouse.\nThe evaluation period was set to 2 weeks, and grouping and pharmacological evaluation were performed based on the results of tumor diameter measurement using a caliper. The tumor diameter and body weight were measured twice a week.\nUsing trypsin-EDTA-PBS(−), the cultured cells were detached and collected and then centrifuged (4° C., 1200 rpm, 5 min). After removing the supernatant, D-PBS (−) was added and the cells were resuspended and washed by centrifugation in the same manner as above. This washing operation was further repeated twice. After a portion of the cell suspension was taken and the number of viable cells was counted using AOPI Staining Solution, a cell suspension at 1×10^7 cells/mL was prepared using D-PBS(−), After the preparation, the cell suspension was stored in ice until transplantation. […]\nOn the eighth day after the transplantation, the long diameter and the short diameter were measured and the tumor volume was calculated. […]\nThe tumor diameter was determined by measuring the short diameter and the long diameter using an electronic caliper (produced by Mitutoyo Corporation). After tumor cell transplantation, the tumor diameter was measured twice a week.\nBased on the measurement results of the tumor diameter, the tumor volume (TV: tumor volume) was calculated using the following formula: […]"}, "NALM6": {"test_system": "NALM6", "assay": "Combination of tolinapant and CD19 CAR-KHYG-1 in NALM6 subcutaneous tumor-bearing NOG mice", "type": "in vivo, mouse", "method": "Each mouse was identified with a number attached to the tail of the mouse. During the breeding period, the mice were housed in groups of 5 mice each and bred in a breeding room at a temperature of 24° C.\nAfter grouping, CD19 CAR KHYG-1 cells and KHYG-1 cells were intratumorally administered 4 times in total according to the group constitution.\nThe evaluation period was set up to day 17. Grouping and pharmacological evaluation were performed using the results of tumor volume measurement with a caliper as an indicator. The tumor volume measurement and body weight measurement were performed twice a week and before each administration. […]\nOn the 21th day after the transplantation, the long diameter and the short diameter were measured and the tumor volume was calculated. […]\n4) For KHYG-1 cell administration solution and CD19 CAR-KHYG-1 cell administration solution, the number of viable cells was counted and a cell suspension with the cell density being adjusted according to the group composition table was prepared and intratumorally administered twice a week at 0.1 mL/body (4 times in total).\nThe tumor diameter was determined by measuring the short diameter and the long diameter using an electronic caliper (produced by Mitutoyo Corporation). After tumor cell transplantation, the tumor diameter was measured twice a week. […]"}, "CD19-negative NALM6": {"test_system": "CD19-negative NALM6", "assay": "Cell death induction by tolinapant in presence of cytokine produced from CAR-T", "type": "cell-based", "details": "cytokine produced from CAR-T present with tolinapant; antigen-negative as well as antigen-expressing tumor cells", "source_text": "It has also been confirmed that when CAR-T used in this Example was reacted with a target CAR antigen-expressing tumor cell (e.g., CD19-positive NALM6) in vitro, cytokine (e.g., TNF-α) was produced. […] This non-contact apoptosis induction to tumor cells is expected to exert an antitumor effect on tumor cells in which antigen escape has occurred or tumor cells metastasized to a site to which modified immune cells cannot make access."}}, "note": "“Also recorded” adds a separate entry of the source."}
{"smiles": "C[C@@H]1CN(CC(=O)N2CC(C)(C)c3nc(CO)c(Cc4ccc(F)cc4)cc32)[C@@H](CN2CCOC[C@H]2C)CN1", "note": "[Tolinapant, 1-[6-[(4-fluorophenyl)methyl]-5-(hydroxymethyl)-3,3-dimethyl-2H-pyrrolo[3,2-b]pyridin-1-yl]-2-[(2R,5R)-5-methyl-2-[[(3R)-3-methylmorpholin-4-yl]methyl]piperazin-1-yl]ethanone]", "values": [{"measurement": "tumor volume on day 15, combination versus either agent alone", "setting": "A375; tolinapant 16 mg/kg po + NY-ESO-1 TCR-T 3×10^6 cells/body iv, day 15", "result": "a significant difference was observed"}, {"measurement": "tumor regression with NY-ESO-1 TCR-T and tolinapant both administered", "setting": "A375; tolinapant 16 mg/kg po + NY-ESO-1 TCR-T iv, compared with NY-ESO-1 TCR-T alone", "result": "a higher degree of tumor regression was confirmed; also recorded: synergistic effects based on the combined use were shown; also recorded: significant, highly reproducible results"}, {"measurement": "combination effect of tolinapant and CD19 CAR-KHYG-1 (tumor volume)", "setting": "NALM6; tolinapant 16 mg/kg po every day + CD19 CAR-KHYG-1 1×10^7 cells/body intratumoral Day 0, 4, 7, 11, evaluated for 17 days", "result": "A significant combination effect was observed; also recorded: a proliferation suppression effect was clearly shown on day 7 and thereafter; also recorded: significant combination effects were observed on day 17; also recorded: significant, highly reproducible results"}, {"measurement": "antitumor effect of tolinapant alone", "setting": "NALM6; tolinapant alone, 16 mg/kg po every day", "result": "no antitumor effects were observed"}, {"measurement": "induction of cell death (e.g., apoptosis)", "setting": "CD19-negative NALM6", "result": "cell death (e.g., apoptosis) is induced to antigen-negative tumor cells (e.g., CD19-negative NALM6) as well as antigen-expressing cells"}]}
